Target: T1, β1-GBD (Rattus norvegicus, UniProt P80386)
T1 construct: The rat β1 GBD (residues 70-172 was cloned into pGEX6P2, expressed in Escherichia coli (BL21)); made in house; host or cells: E. coli BL21
T1 sequence (P80386 70-172): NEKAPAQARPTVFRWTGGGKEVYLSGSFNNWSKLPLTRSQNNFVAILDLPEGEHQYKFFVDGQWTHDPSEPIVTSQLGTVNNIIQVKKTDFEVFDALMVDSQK
Assay: capture of glycogen hydrolysate fragments on GST-β1 GBD affinity column
Type: binding
Settings: from partial acid hydrolysate of bovine liver glycogen; eluted with propionic acid
Excerpt: In an attempt to establish the chemical nature of the regions of glycogen that bind to the GBD and cause inhibition of the AMPK complex, we carried out partial acid hydrolysis of bovine liver glycogen and utilized the β1 GBD as an affinity matrix to purify hydrolysis products that bound to the GBD. The hydrolysis conditions were chosen to yield a range of oligosaccharides containing up to six glucose units, as detected by high-performance anion exchange chromatography (HPAEC). The hydrolysate was passed down a glutathione Sepharose column to which the GST-GBD had been prebound, and bound oligosaccharides eluted with propionic acid. The eluted oligosaccharides were analyzed by HPAEC (Figure 5A). […] That this disaccharide contained glucose was confirmed by collision-induced dissociation and tandem mass spectrometry (Figure 5B); the product ion spectrum contained a daughter peak at 203, corresponding to the mass of glucose plus one Na^+ ion. […]
To 60 μl of the material from HPAEC, 5 μl of 80% (v/v) acetonitrile plus 2% (v/v) formic acid was added. Small aliquots of this solution were transferred to Waters nanotips (Type F; Millipore, Watford, UK) and analyzed by electrospray ionization–mass spectrometry (ES-MS) in negative ion mode on an ABI Q-StarXL spectrometer (Applied Biosystems, Cambridge, UK). […]

## OC[C@H]1O[C@H](OC[C@H]2OC(O)[C@H](O)[C@@H](O)[C@@H]2O)[C@H](O)[C@@H](O)[C@@H]1O (stereo partly shown) [isomaltose]
  binding to immobilised β1-GBD: bound to the β1-GBD

Source: publication PMC2642990, “The Glycogen-Binding Domain on the AMPK β Subunit Allows the Kinase to Act as a Glycogen Sensor” (Cell Metabolism, 2009)
